# Where two headings read alike, the source gives them in different places.
# Legend:
# MRSA [1] = experiment: MIC of methicillin for MRSA isolates grown with glycine or GBE (Table 1); format: cell-based, Staphylococcus aureus; conditions: SW2-32 (EMRSA-1)
# MRSA [2] = format: cell-based, Staphylococcus aureus; conditions: for MIC of methicillin: glycine 0.02M [0.15%]
# From the text: Stored frozen plasma was pooled from five subjects.
# Human plasma may bind or otherwise inactivate foreign substances and good activity in plasma is indicative of good in vivo activity.
# [3] = tested on: vancomycin- and gentamicin-resistant Enterococcus faecium; experiment: microbe, parasite or virus in culture; format: cell-based
# From the text: The agents of the present invention are not limited to the reversal of resistance in Staphylococcus. The test strains in Table 5 are patient-isolates of vancomycin- and gentamicin-resistant Enterococcus faecium. At the time of isolation, they were commonly resistant to all clinically useable antimicrobial agents.
structure (smiles),measurement,setting,value
"NCC(=O)O [Glycine, glycine]",MIC of methicillin,MRSA [1]; glycine 0.02M (0.15%),32 µg/mL
same,MIC of methicillin,MRSA [1]; glycine 0.2M (1.5%),4 µg/mL
same,reduction in activity in human plasma,"MRSA [2]; 1% human plasma, approximation from Table 3",about 75%
same,MIC of methicillin,"MRSA [2]; 5518 (EMRSA-1), +1% human plasma",32 µg/mL
same,MIC of methicillin,"MRSA [2]; 5518 (EMRSA-1), no plasma",8 µg/mL
same,MIC of methicillin,"MRSA [2]; L277, +1% human plasma",32 µg/mL
same,MIC of methicillin,"MRSA [2]; L277, no plasma",8 µg/mL
same,MIC of methicillin,"MRSA [2]; L278, +1% human plasma",256 µg/mL
same,MIC of methicillin,"MRSA [2]; L278, no plasma",64 µg/mL
same,MIC of methicillin,"MRSA [2]; L279, +1% human plasma",256 µg/mL
same,MIC of methicillin,"MRSA [2]; L279, no plasma",64 µg/mL
same,MIC of methicillin,"MRSA [2]; L280, +1% human plasma",64 µg/mL
same,MIC of methicillin,"MRSA [2]; L280, no plasma",16 µg/mL
same,MIC of methicillin,"MRSA [2]; L281, +1% human plasma",32 µg/mL
same,MIC of methicillin,"MRSA [2]; L281, no plasma",8 µg/mL
same,MIC of methicillin,"MRSA [2]; L282, +1% human plasma",256 µg/mL
same,MIC of methicillin,"MRSA [2]; L282, no plasma",32 µg/mL
same,MIC of methicillin,"MRSA [2]; L283, +1% human plasma",128 µg/mL
same,MIC of methicillin,"MRSA [2]; L283, no plasma",32 µg/mL
same,MIC of methicillin,"MRSA [2]; L284, +1% human plasma",256 µg/mL
same,MIC of methicillin,"MRSA [2]; L284, no plasma",32 µg/mL
same,MIC of methicillin,"MRSA [2]; L285, +1% human plasma",256 µg/mL
same,MIC of methicillin,"MRSA [2]; L285, no plasma",32 µg/mL
same,MIC of methicillin,"MRSA [2]; L286, +1% human plasma",64 µg/mL
same,MIC of methicillin,"MRSA [2]; L286, no plasma",32 µg/mL
same,MIC of methicillin,"MRSA [2]; L287, +1% human plasma",128 µg/mL
same,MIC of methicillin,"MRSA [2]; L287, no plasma",32 µg/mL
same,MIC of methicillin,"MRSA [2]; L288, +1% human plasma",128 µg/mL
same,MIC of methicillin,"MRSA [2]; L288, no plasma",32 µg/mL
same,MIC of methicillin,"MRSA [2]; L289, +1% human plasma",256 µg/mL
same,MIC of methicillin,"MRSA [2]; L289, no plasma",32 µg/mL
same,MIC of methicillin,"MRSA [2]; L290, +1% human plasma",128 µg/mL
same,MIC of methicillin,"MRSA [2]; L290, no plasma",32 µg/mL
same,MIC of methicillin,"MRSA [2]; L291, +1% human plasma",64 µg/mL
same,MIC of methicillin,"MRSA [2]; L291, no plasma",32 µg/mL
same,MIC of methicillin,"MRSA [2]; L292, +1% human plasma",256 µg/mL
same,MIC of methicillin,"MRSA [2]; L292, no plasma",32 µg/mL
same,MIC of methicillin,"MRSA [2]; L293, +1% human plasma",128 µg/mL
same,MIC of methicillin,"MRSA [2]; L293, no plasma",32 µg/mL
same,MIC of methicillin,"MRSA [2]; L294, +1% human plasma",128 µg/mL
same,MIC of methicillin,"MRSA [2]; L294, no plasma",16 µg/mL
same,strains tested achieving the target MIC of vancomycin of 2 mg/l,"[3]; 0.2M glycine, Table 5",50%
same,MIC of vancomycin,"[3]; ATCC 29212, glycine 0.02M",4 µg/mL
same,MIC of vancomycin,"[3]; ATCC 29212, glycine 0.2M",2 µg/mL
same,MIC of vancomycin,"[3]; BBC, glycine 0.02M",16 µg/mL
same,MIC of vancomycin,"[3]; BBC, glycine 0.2M",4 µg/mL
same,MIC of vancomycin,"[3]; E254, glycine 0.02M",16 µg/mL
same,MIC of vancomycin,"[3]; E254, glycine 0.2M",4 µg/mL
same,MIC of vancomycin,"[3]; E267, glycine 0.02M",16 µg/mL
same,MIC of vancomycin,"[3]; E267, glycine 0.2M",4 µg/mL
same,MIC of vancomycin,"[3]; E271, glycine 0.02M",8 µg/mL
same,MIC of vancomycin,"[3]; E271, glycine 0.2M",2 µg/mL
same,MIC of vancomycin,"[3]; E285, glycine 0.02M",16 µg/mL
same,MIC of vancomycin,"[3]; E285, glycine 0.2M",2 µg/mL
same,MIC of vancomycin,"[3]; E297, glycine 0.02M",8 µg/mL
same,MIC of vancomycin,"[3]; E297, glycine 0.2M",2 µg/mL
same,MIC of vancomycin,"[3]; GBC, glycine 0.02M",8 µg/mL
same,MIC of vancomycin,"[3]; GBC, glycine 0.2M",4 µg/mL
same,MIC of vancomycin,"[3]; S226, glycine 0.02M",8 µg/mL
same,MIC of vancomycin,"[3]; S226, glycine 0.2M",4 µg/mL
same,MIC of vancomycin,"[3]; S227, glycine 0.02M",32 µg/mL
same,MIC of vancomycin,"[3]; S227, glycine 0.2M",4 µg/mL
same,MIC of vancomycin,"[3]; S283, glycine 0.02M",8 µg/mL
same,MIC of vancomycin,"[3]; S283, glycine 0.2M",2 µg/mL
same,MIC of vancomycin,"[3]; S302, glycine 0.02M",8 µg/mL
same,MIC of vancomycin,"[3]; S302, glycine 0.2M",4 µg/mL
same,MIC of vancomycin,"[3]; S315, glycine 0.02M",4 µg/mL
same,MIC of vancomycin,"[3]; S315, glycine 0.2M",1 µg/mL
same,MIC of vancomycin,"[3]; S317, glycine 0.02M",32 µg/mL
same,MIC of vancomycin,"[3]; S317, glycine 0.2M",4 µg/mL
same,MIC of vancomycin,"[3]; S319, glycine 0.02M",16 µg/mL
same,MIC of vancomycin,"[3]; S319, glycine 0.2M",4 µg/mL
same,MIC of vancomycin,"[3]; S333, glycine 0.02M",8 µg/mL
same,MIC of vancomycin,"[3]; S333, glycine 0.2M",2 µg/mL
same,MIC of vancomycin,"[3]; S337, glycine 0.02M",4 µg/mL
same,MIC of vancomycin,"[3]; S337, glycine 0.2M",2 µg/mL
same,MIC of vancomycin,"[3]; S393, glycine 0.02M",8 µg/mL
same,MIC of vancomycin,"[3]; S393, glycine 0.2M",2 µg/mL
same,MIC of vancomycin,"[3]; S497, glycine 0.02M",8 µg/mL
same,MIC of vancomycin,"[3]; S497, glycine 0.2M",2 µg/mL
same,MIC of vancomycin,"[3]; S556, glycine 0.02M",32 µg/mL
same,MIC of vancomycin,"[3]; S556, glycine 0.2M",2 µg/mL
same,MIC of vancomycin,"[3]; WBC, glycine 0.02M",8 µg/mL
same,MIC of vancomycin,"[3]; WBC, glycine 0.2M",4 µg/mL

# — US20060040871A1, “Bacterial transforming agent” (priority 2003, published 2006)
